Values of other authors as cited in patent US20230059869A1, “ORAL PHARMACEUTICAL SOLUTION OF CLOPIDOGREL” (LIQMEDS WORLDWIDE LIMITED, priority 2021, published 2023).

Key:
[1] = see Reist; Badorc
[2] = at high doses; see Reist; Badorc

For `COC(=O)[C@@H](c1ccccc1Cl)N1CCc2sccc2C1` [Impurity C, (R)-Methyl (2-chlorophenyl)(6,7-dihydro-4H-thieno[3,2-c]pyridin-5-yl)acetate], the antithrombotic activity [1] is given as “devoid of antithrombotic activity” and the convulsions [2] is given as “can evoke convulsions at high doses”.
